From publication PMC4448990 (Pharmacology Research & Perspectives, 2015)
Where two headings read alike, the source gives them in different places. Marks after values point to notes of the source that are not given here.

What was measured:
[1] = molecular target: T1, human GlyRα3 glycine receptors (Homo sapiens, UniProt O75311); experiment: submaximal glycine currents in CHO cells; assay type: cell-based
T1 sequence (O75311 34-464): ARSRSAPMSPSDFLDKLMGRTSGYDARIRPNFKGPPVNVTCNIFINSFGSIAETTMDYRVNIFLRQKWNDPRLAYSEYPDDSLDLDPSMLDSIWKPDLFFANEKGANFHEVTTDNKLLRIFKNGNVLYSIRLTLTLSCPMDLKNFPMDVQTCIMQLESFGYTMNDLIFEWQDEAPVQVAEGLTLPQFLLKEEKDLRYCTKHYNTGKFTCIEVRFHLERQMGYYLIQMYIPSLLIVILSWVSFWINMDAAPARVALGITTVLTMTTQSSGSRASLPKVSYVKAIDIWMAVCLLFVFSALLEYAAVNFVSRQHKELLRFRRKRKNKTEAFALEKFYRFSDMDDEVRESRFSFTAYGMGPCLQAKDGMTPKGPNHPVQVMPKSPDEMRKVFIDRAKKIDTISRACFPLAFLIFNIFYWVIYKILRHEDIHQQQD

kindling epileptogenesis = experiment: bilateral corneal kindling; assay type: in vivo, mouse; conditions: Table 5 summary; values are ED50 (mg/kg)
Racine stage 5 seizures = experiment: proconvulsant effects; assay type: in vivo
MES-induced seizures = conditions: mouse, ESL 50 mg/kg p.o.; ref Pires et al. [2011]; cited from earlier work
[2] = tested on: latrunculin A-induced seizures; conditions: ESL 100 mg/kg oral, ref Sierra-Paredes et al. [2011], 2014, cited from earlier work
[3] = molecular target: human GRIN1/GRIN2B NMDA receptor (Homo sapiens, UniProt Q05586+Q13224); experiment: submaximal NMDA-receptor-mediated currents in HEK cells; assay type: cell-based
[4] = molecular target: human Nav1.3 sodium channels (Homo sapiens, UniProt Q9NY46); experiment: whole-cell patch clamp, Nav1.3 in CHO-K1 cells; assay type: cell-based; conditions: 250 μmol/L; for Fast inactivation V0.5 / Slow inactivation V0.5: n = 3–6; for time constant for entering the slow inactivated state: control 20.29 sec
[5] = tested on: sodium channels endogenously expressed in N1E-115 mouse neuroblastoma cells; conditions: 250 μmol/L; ref Hebeisen et al. [2014]; cited from earlier work
[6] = ref Nunes et al. [2013], cited from earlier work
[7] = molecular target: human α1β2γ2 GABAA receptors (Homo sapiens, UniProt P14867+P18507+P47870); experiment: submaximal GABA currents in Ltk cells; assay type: cell-based
hCav2.1 calcium channels = hCav2.1 calcium channels (Homo sapiens, UniProt O00555); experiment: whole-cell patch clamp, hCav2.1 in CHO cells; assay type: cell-based; conditions: IC50, hCav2.1 calcium peak currents, 0.3–1000 μmol/L, holding potential −80 mV
[8] = molecular target: human α2β2γ2 GABAA receptors (Homo sapiens, UniProt P18507+P47869+P47870); experiment: submaximal GABA currents in Ltk cells; assay type: cell-based
[9] = molecular target: human α3β2γ2 GABAA receptors (Homo sapiens, UniProt P18507+P34903+P47870); experiment: submaximal GABA currents in Ltk cells; assay type: cell-based
[10] = molecular target: human α5β2γ2 GABAA receptors (Homo sapiens, UniProt P18507+P31644+P47870); experiment: submaximal GABA currents in Ltk cells; assay type: cell-based
[11] = molecular target: hKv7.2 potassium channels (Homo sapiens, UniProt O43526); experiment: whole-cell patch clamp, hKv7.2 in CHO cells; assay type: cell-based
human GRIA1 receptor = human GRIA1 receptor (Homo sapiens, UniProt P42261); experiment: AMPA-receptor-mediated currents in CHO cells; assay type: cell-based
[12] = tested on: transient Na+ current (INaT); conditions: ref Döser et al. [2013b], [2015]; cited from earlier work
[13] = human plasma and CSF pharmacokinetics; assay type: in vivo; conditions: LCM 600 mg twice daily, protein binding ∼15%
[14] = ref Doty et al. [2007]; cited from earlier work

human Nav1.3 sodium channels, sequence (Q9NY46 whole entry): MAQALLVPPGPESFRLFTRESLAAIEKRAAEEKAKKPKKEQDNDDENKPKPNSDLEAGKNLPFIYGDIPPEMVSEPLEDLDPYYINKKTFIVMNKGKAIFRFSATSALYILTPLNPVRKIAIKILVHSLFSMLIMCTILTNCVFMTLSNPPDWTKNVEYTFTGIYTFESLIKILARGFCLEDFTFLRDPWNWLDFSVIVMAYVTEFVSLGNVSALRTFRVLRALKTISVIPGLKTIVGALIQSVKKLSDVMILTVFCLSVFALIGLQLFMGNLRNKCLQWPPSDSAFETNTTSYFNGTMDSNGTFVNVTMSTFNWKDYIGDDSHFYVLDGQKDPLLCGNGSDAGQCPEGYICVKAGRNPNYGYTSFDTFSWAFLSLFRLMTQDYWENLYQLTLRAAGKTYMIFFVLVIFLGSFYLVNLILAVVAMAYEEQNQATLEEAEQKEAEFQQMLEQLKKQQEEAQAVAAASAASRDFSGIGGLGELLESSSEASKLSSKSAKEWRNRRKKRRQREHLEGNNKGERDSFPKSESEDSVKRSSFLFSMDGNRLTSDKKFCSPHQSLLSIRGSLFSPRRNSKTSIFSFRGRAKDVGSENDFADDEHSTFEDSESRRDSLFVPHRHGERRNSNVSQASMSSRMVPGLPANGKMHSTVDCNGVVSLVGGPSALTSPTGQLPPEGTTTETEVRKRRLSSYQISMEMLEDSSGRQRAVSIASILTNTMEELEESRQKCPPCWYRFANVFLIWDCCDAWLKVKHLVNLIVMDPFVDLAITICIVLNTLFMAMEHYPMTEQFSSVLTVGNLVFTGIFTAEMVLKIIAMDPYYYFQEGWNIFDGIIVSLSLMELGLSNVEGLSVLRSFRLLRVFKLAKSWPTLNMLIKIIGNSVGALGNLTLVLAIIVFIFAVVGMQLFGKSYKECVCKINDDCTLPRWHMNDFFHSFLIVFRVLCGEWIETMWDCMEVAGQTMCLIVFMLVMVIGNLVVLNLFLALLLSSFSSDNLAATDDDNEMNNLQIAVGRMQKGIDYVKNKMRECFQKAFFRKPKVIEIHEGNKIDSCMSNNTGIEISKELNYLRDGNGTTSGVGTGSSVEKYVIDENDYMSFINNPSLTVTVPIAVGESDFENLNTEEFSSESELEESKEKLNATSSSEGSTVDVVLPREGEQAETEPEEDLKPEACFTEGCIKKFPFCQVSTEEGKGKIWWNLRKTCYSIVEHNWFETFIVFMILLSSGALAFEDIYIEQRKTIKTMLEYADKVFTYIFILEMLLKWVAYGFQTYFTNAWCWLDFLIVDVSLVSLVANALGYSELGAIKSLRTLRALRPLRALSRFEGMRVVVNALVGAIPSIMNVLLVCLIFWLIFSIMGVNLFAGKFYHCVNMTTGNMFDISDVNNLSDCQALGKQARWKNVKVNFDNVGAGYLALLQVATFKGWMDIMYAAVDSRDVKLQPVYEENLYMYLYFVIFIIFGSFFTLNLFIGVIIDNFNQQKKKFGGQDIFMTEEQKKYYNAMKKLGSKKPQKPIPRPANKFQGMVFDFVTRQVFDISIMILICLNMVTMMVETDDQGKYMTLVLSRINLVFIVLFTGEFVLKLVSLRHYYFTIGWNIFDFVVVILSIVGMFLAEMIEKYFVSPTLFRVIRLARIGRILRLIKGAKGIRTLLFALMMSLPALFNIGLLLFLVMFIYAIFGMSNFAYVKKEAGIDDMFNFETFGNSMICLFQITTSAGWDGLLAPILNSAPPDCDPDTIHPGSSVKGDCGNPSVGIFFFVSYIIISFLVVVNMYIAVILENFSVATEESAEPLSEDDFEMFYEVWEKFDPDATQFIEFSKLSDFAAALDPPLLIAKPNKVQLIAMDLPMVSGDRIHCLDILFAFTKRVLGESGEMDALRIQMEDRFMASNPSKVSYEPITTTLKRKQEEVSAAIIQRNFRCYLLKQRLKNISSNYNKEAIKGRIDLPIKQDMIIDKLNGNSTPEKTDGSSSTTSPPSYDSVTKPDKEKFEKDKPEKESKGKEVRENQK
human α3β2γ2 GABAA receptors, sequence (P34903 29-492): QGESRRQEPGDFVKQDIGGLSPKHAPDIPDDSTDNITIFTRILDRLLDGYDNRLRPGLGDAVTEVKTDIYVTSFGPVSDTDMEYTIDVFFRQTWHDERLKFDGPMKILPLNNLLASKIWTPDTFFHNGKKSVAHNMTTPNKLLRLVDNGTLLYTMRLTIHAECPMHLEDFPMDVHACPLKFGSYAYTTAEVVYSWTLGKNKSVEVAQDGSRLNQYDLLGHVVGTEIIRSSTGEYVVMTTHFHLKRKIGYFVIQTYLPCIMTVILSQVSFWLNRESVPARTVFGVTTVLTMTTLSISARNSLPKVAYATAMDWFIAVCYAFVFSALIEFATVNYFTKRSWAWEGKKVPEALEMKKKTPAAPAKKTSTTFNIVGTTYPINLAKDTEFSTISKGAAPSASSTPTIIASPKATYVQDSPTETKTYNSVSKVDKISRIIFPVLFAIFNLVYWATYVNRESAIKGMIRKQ
human α3β2γ2 GABAA receptors, sequence (P47870 25-512 limits assumed): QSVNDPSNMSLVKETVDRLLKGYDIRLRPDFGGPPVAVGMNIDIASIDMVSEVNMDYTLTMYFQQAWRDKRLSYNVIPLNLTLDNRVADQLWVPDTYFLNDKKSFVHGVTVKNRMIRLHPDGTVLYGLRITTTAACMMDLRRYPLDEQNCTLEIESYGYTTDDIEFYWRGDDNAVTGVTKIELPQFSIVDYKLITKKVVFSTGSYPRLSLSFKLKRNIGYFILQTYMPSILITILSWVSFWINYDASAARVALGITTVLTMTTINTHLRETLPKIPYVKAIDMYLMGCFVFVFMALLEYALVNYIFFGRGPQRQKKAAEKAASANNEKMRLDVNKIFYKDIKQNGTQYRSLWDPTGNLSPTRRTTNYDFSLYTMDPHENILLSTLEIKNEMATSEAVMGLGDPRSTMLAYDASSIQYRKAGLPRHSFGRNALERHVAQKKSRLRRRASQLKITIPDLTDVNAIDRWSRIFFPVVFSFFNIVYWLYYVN
human α3β2γ2 GABAA receptors, sequence (P18507 40-475): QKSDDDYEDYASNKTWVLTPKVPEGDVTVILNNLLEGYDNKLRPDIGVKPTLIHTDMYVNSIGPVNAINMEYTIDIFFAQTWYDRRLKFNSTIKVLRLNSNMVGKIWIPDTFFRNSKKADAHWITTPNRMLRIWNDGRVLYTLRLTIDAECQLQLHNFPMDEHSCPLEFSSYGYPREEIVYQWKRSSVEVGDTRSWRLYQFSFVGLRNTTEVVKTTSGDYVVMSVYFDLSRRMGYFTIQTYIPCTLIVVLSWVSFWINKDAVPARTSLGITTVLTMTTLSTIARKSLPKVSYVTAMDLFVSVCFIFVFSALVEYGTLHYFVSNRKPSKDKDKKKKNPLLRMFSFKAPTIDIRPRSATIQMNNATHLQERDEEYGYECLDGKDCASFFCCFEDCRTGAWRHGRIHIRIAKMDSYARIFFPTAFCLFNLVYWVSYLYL
human α5β2γ2 GABAA receptors, sequence (P31644 32-462): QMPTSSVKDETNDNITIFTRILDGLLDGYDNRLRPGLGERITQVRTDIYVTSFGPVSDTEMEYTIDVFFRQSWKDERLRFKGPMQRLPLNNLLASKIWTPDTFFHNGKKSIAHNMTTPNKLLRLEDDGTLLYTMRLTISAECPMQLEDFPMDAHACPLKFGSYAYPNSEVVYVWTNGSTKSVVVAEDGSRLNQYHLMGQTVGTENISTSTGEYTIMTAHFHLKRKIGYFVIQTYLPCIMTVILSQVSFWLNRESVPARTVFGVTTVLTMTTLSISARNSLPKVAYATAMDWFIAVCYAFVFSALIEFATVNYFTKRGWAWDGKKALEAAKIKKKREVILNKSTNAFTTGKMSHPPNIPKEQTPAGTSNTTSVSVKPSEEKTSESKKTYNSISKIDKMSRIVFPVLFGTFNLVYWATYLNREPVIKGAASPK
human α5β2γ2 GABAA receptors, sequence (P47870 25-512 limits assumed): as the sequence (P47870 25-512 limits assumed) above
human α5β2γ2 GABAA receptors, sequence (P18507 40-475): as the sequence (P18507 40-475) above
human α1β2γ2 GABAA receptors, sequence (P14867 28-456): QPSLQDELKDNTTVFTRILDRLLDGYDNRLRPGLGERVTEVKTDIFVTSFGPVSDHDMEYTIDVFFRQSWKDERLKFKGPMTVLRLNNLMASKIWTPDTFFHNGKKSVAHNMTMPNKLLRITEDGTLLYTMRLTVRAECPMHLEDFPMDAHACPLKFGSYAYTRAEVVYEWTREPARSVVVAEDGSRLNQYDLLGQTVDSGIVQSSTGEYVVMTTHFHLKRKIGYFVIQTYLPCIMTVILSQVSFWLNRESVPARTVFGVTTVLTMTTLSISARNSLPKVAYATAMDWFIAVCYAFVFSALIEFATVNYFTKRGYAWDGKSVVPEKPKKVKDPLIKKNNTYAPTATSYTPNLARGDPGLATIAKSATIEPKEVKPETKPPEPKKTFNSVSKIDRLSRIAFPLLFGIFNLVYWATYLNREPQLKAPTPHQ
human α1β2γ2 GABAA receptors, sequence (P47870 25-512 limits assumed): as the sequence (P47870 25-512 limits assumed) above
human α1β2γ2 GABAA receptors, sequence (P18507 40-475): as the sequence (P18507 40-475) above
human α2β2γ2 GABAA receptors, sequence (P47869 29-451): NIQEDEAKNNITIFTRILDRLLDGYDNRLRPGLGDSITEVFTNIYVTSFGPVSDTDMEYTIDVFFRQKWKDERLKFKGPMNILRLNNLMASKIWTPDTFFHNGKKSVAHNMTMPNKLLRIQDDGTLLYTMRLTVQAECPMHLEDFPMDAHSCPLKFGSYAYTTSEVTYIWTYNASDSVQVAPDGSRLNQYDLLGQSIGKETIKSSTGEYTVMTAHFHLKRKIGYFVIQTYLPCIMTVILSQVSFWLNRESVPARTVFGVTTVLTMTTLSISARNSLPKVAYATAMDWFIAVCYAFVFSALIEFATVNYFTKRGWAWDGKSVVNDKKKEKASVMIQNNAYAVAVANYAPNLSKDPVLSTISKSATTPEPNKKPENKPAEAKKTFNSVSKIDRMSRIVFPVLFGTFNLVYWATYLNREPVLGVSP
human α2β2γ2 GABAA receptors, sequence (P47870 25-512 limits assumed): as the sequence (P47870 25-512 limits assumed) above
human α2β2γ2 GABAA receptors, sequence (P18507 40-475): as the sequence (P18507 40-475) above

O=C1C[C@@H]2OCC=C3CN4CC[C@]56c7ccccc7N1[C@H]5[C@H]2[C@H]3C[C@H]46 [Strychnine]
IC50 [1]: 0.052 µM

CC(=O)O[C@H]1Cc2ccccc2N(C(N)=O)c2ccccc21 [ESL, (S)-10-acetoxy-10,11-dihydro-5H-dibenz/b,f/azepine-5-carboxamide]
Corneal kindling (antiepileptogenic models) (kindling epileptogenesis): 30 mg/kg
Racine stage 5 seizures (proconvulsant effects) (Racine stage 5 seizures; at 240 mg/kg): 22% ^*
protection against MES-induced seizures (MES-induced seizures): 97%
hippocampal extracellular glutamate levels ([2]; microdialysate): significantly reduced glutamate levels
acute and chronic latrunculin A-induced seizures and EEG chronic signs of paroxysmal activity ([2]; Swiss mice, previous to latrunculin A microperfusion): completely prevented

N[C@H](CCCP(=O)(O)O)C(=O)O [D-AP5, D-(−)-2-amino-5-phosphonopentanoic]
IC50 ([3]; read-out: IC50, NMDA receptor-mediated currents, submaximal currents, HEK cells GRIN1/GRIN2B): 7 µM

NC(=O)N1c2ccccc2CC(=O)c2ccccc21 [OXC, oxcarbazepine]
Fast inactivation V0.5 ([4]; mean ± SEM): −55.95 ± 2.91 mV
Slow inactivation V0.5 ([4]; mean ± SEM): −19.47 ± 4.55 mV
time constant for entering the slow inactivated state [4]: not affected
recovery of fast inactivated channels [5]: required longer pulses to recover
CSF Cmax of nonmetabolized OXC ([6]; ESL 1200 mg QD): 0.38 µmol/L
CSF Cmax of nonmetabolized OXC ([6]; OXC 600 mg BID): 1.82 µmol/L

Cc1ncc2n1-c1ccc(Cl)cc1C(c1ccccc1F)=NC2 [midazolam]
increase of submaximal α1β2γ2 GABA currents ([7]; 3 μmol/L): ~80%

NC(=O)N1c2ccccc2C=Cc2ccccc21 [CBZ, carbamazepine]
Corneal kindling (antiepileptogenic models) (kindling epileptogenesis): 140 mg/kg
Fast inactivation V0.5 ([4]; mean ± SEM): −72.33 ± 5.04 mV
Slow inactivation V0.5 ([4]; mean ± SEM): −21.56 ± 3.23 mV
Fast inactivation, individual shifts ([4]; versus control (bath), mean ± SEM): −14.35 mV
time constant for entering the slow inactivated state [4]: not affected
IC50 (hCav2.1 calcium channels): 452 µM
GABA inward current stimulation, α1β2γ2, Mean ± SEM ([7]; 50 μmol/L): 104.3 ± 5.0
GABA inward current stimulation, α1β2γ2, Mean ± SEM ([7]; 100 μmol/L): 117.4 ± 4.9
GABA inward current stimulation, α1β2γ2, Mean ± SEM ([7]; 250 μmol/L): 115.7 ± 5.3
GABA inward current stimulation, α1β2γ2, Mean ± SEM ([7]; 500 μmol/L): 132.4 ± 5.3
GABA inward current stimulation, α1β2γ2, Mean ± SEM ([7]; 1000 μmol/L): 150.3 ± 15.5
increase of submaximal α1β2γ2 GABA currents ([7]; 1000 μmol/L): 50%
GABA inward current stimulation, α2β2γ2, Mean ± SEM ([8]; 50 μmol/L): 97.9 ± 3.3
GABA inward current stimulation, α2β2γ2, Mean ± SEM ([8]; 100 μmol/L): 111.4 ± 2.7
GABA inward current stimulation, α2β2γ2, Mean ± SEM ([8]; 250 μmol/L): 109.0 ± 7.6
GABA inward current stimulation, α2β2γ2, Mean ± SEM ([8]; 500 μmol/L): 103.6 ± 7.6
GABA inward current stimulation, α2β2γ2, Mean ± SEM ([8]; 1000 μmol/L): 104.2 ± 2.7
GABA inward current stimulation, α3β2γ2, Mean ± SEM ([9]; 50 μmol/L): 93.3 ± 4.1
GABA inward current stimulation, α3β2γ2, Mean ± SEM ([9]; 100 μmol/L): 112.8 ± 5.4
GABA inward current stimulation, α3β2γ2, Mean ± SEM ([9]; 250 μmol/L): 131.1 ± 9.4
GABA inward current stimulation, α3β2γ2, Mean ± SEM ([9]; 500 μmol/L): 120.3 ± 11.8
GABA inward current stimulation, α3β2γ2, Mean ± SEM ([9]; 1000 μmol/L): 166.7 ± 21.0
increase of submaximal α3β2γ2 GABA currents ([9]; 1000 μmol/L): 66%
GABA inward current stimulation, α5β2γ2, Mean ± SEM ([10]; 50 μmol/L): 103.8 ± 1.5
GABA inward current stimulation, α5β2γ2, Mean ± SEM ([10]; 100 μmol/L): 103.8 ± 4.5
GABA inward current stimulation, α5β2γ2, Mean ± SEM ([10]; 250 μmol/L): 93.6 ± 4.3
GABA inward current stimulation, α5β2γ2, Mean ± SEM ([10]; 500 μmol/L): 80.7 ± 5.9
GABA inward current stimulation, α5β2γ2, Mean ± SEM ([10]; 1000 μmol/L): 63.0 ± 4.5
IC50 [11]: 572 µM
IC50 [3]: 214 µM
IC50, AMPA currents (human GRIA1 receptor; CHO cells, human GRIA1): neither eslicarbazepine nor CBZ significantly changed AMPA currents
IC50 [1]: 441 µM
Racine stage 5 seizures (proconvulsant effects) (Racine stage 5 seizures; at 45 mg/kg): 80% ^**
recovery of fast inactivated channels [5]: required longer pulses to recover
inhibition of firing of DGCs, control versus pilocarpine-treated rats [12]: significantly reduced in chronic experimental epilepsy

COC[C@@H](NC(C)=O)C(=O)NCc1ccccc1 [LCM, lacosamide]
Fast inactivation V0.5 ([4]; mean ± SEM): −53.54 ± 3.95 mV
Slow inactivation V0.5 ([4]; mean ± SEM): −37.04 ± 2.72 mV
time constant for entering the slow inactivated state [4]: 10.91 s
LCM-free drug, peak plasma [13]: 49 µmol/L
LCM protein binding [14]: ~15%
recovery of fast inactivated channels [5]: recovered similar to control conditions

NS(=O)(=O)c1cccc2c1c([N+](=O)[O-])cc1nc(O)c(O)nc12 [NBQX, 2,3-Dioxo-6-nitro-1,2,3,4-tetrahydrobenzo[f]quinoxaline-7-sulfonamide]
IC50 (human GRIA1 receptor): 19 µM
